Measured values published in patent publication US12168012B2, “NLRP3 inflammasome inhibitors” (Novartis AG, priority 2018, dated 2024).

The compounds below were run on NF-kB-dependent TNF-α secretion (assay: TNF-α secretion assay (counterscreen)). Conditions: Homo sapiens; THP-1 cells, Pam3CSK4-stimulated, 3 hours, HTRF.
Type: cell-based
Experimental: Monocytic THP-1 cells were maintained according to providers' instructions in RPMI media as described above. Undifferentiated cells were plated at 50,000 cells per well in a 384-well flat-bottom cell culture plates (Greiner, #781986), and allowed to rest overnight. Experimental compounds were prepared and added as described above. TNF-α secretion was triggered by the addition of either 1 μg/mL LPS (Sigma, #L4391) or 100 ng/mL Pam3CSK4 (Invivogen, #tlrl-pms) depending on the experiment, and cells were incubated for 3 hours. 10 μL supernatant was removed, and TNF-α levels were monitored using an HTRF assay (CisBio, #62TNFPEC) according to manufacturers' instructions. Viability was monitored as described above.
IC50 values were calculated from the plot of percentage of inhibition versus the inhibitor concentration by a logistics fit according to: y=A2+(A1−A2)/(1+(x/IC50)^p) where y is the %-inhibition at the inhibitor concentration, x. A1 is the lowest inhibition value, i.e. 0%, and A2 the maximum inhibition value, i.e. 100%. The exponent, p, is the Hill coefficient. The curve fitting was conducted with an internally developed software suite. […]

Row | Compound | IC50
1 | CC(C)c1nn(CC(=O)Nc2ccncn2)c(=O)c2cc3sc(Cl)cc3n12 [Ex 1, 2-(2-Chloro-5-isopropyl-8-oxothieno[2′,3′:4,5]pyrrolo[1,2-d][1,2,4]triazin-7(8H)-yl)-N-(pyrimidin-4-yl)acetamide] | > 100 µM
2 | CC(C)c1nn(CC(=O)Nc2cccnc2)c(=O)c2cc3sc(Cl)cc3n12 [Ex 2, 2-(2-Chloro-5-isopropyl-8-oxothieno[2′,3′:4,5]pyrrolo[1,2-d][1,2,4]triazin-7(8H)-yl)-N-(pyridin-3-yl)acetamide] | > 100 µM
3 | CC(O)c1nn(CC(=O)Nc2ccncn2)c(=O)c2cc3sc(Cl)cc3n12 (stereo not shown) [Ex 3, 2-(2-Chloro-5-(1-hydroxyethyl)-8-oxothieno[2′,3′:4,5]pyrrolo[1,2-d][1,2,4]triazin-7(8H)-yl)-N-(pyrimidin-4-yl)acetamide] | > 100 µM
4 | O=C(Cn1nc(C2CC2)n2c(cc3scnc32)c1=O)Nc1cccnc1 [Ex 4, 2-(5-Cyclopropyl-8-oxothiazolo[5′,4′:4,5]pyrrolo[1,2-d][1,2,4]triazin-7(8H)-yl)-N-(pyridin-3-yl)acetamide] | > 100 µM
5 | CC(C)c1nn(CC(=O)Nc2cccnc2)c(=O)c2cc3sc(F)cc3n12 [Ex 5, 2-(2-Fluoro-5-isopropyl-8-oxothieno[2,3′:4,5]pyrrolo[1,2-d][1,2,4]triazin-7(8H)-yl)-N-(pyridin-3-yl)acetamide] | > 100 µM
6 | CC(C)c1nn(CC(=O)Nc2ccncn2)c(=O)c2cc3sc(F)cc3n12 [Ex 6, 2-(2-Fluoro-5-isopropyl-8-oxothieno[2′,3′:4,5]pyrrolo[1,2-d][1,2,4]triazin-7(8H)-yl)-N-(pyrimidin-4-yl)acetamide] | > 100 µM
7 | CC(C)c1nn(CC(=O)N[C@@H]2CCCNC2)c(=O)c2cc3sc(Cl)cc3n12 [Ex 10, (R)-2-(2-Chloro-5-isopropyl-8-oxothieno[2′,3′:4,5]pyrrolo[1,2-d][1,2,4]triazin-7(8H)-yl)-N-(piperidin-3-yl)acetamide] | > 100 µM
8 | CC(C)c1nn(CC(=O)N[C@@H]2CCCN(C)C2)c(=O)c2cc3sc(Cl)cc3n12 [Ex 17, (R)-2-(2-Chloro-5-isopropyl-8-oxothieno[2′,3′:4,5]pyrrolo[1,2-d][1,2,4]triazin-7(8H)-yl)-N-(1-methylpiperidin-3-yl)acetamide] | > 100 µM
9 | CC(C)c1nn(CC(=O)N[C@H]2CCCN(C)C2)c(=O)c2cc3sc(Cl)cc3n12 [Ex 18, (S)-2-(2-Chloro-5-isopropyl-8-oxothieno[2′,3′:4,5]pyrrolo[1,2-d][1,2,4]triazin-7(8H)-yl)-N-(1-methylpiperidin-3-yl)acetamide] | > 100 µM
10 | CC(C)c1nn(CC(=O)N[C@@H]2CCCN(C)C2)c(=O)c2cc3scnc3n12 [Ex 48, (R)-2-(5-Isopropyl-8-oxothiazolo[5′,4′:4,5]pyrrolo[1,2-d][1,2,4]triazin-7(8H)-yl)-N-(1-methylpiperidin-3-yl)acetamide] | > 100 µM
11 | CN1CCC[C@@H](NC(=O)Cn2nc(C(C)(C)O)n3c(cc4sc(Cl)cc43)c2=O)C1 [Ex 60, (R)-2-(2-Chloro-5-(2-hydroxypropan-2-yl)-8-oxothieno[2′,3′:4,5]pyrrolo[1,2-d][1,2,4]triazin-7(8H)-yl)-N-(1-methylpiperidin-3-yl)acetamide] | > 100 µM
12 | CC(C)c1nn(CC(=O)NC2CCOCC2)c(=O)c2cc3sc(Cl)cc3n12 [Ex 75, 2-(2-Chloro-5-isopropyl-8-oxothieno[2′,3′:4,5]pyrrolo[1,2-d][1,2,4]triazin-7(8H)-yl)-N-(tetrahydro-2H-pyran-4-yl)acetamide] | > 100 µM
13 | CC(C)c1nn(CC(=O)N[C@@H]2CCCN(C3CCC3)C2)c(=O)c2cc3sc(Cl)cc3n12 [Ex 125, (R)-2-(2-Chloro-5-isopropyl-8-oxothieno[2′,3′:4,5]pyrrolo[1,2-d][1,2,4]triazin-7(8H)-yl)-N-(1-cyclobutylpiperidin-3-yl)acetamide] | > 33 µM

These compounds were tested on NLRP3 inflammasome (assay: IL-1β secretion assay). Conditions: Homo sapiens, THP-1, 3 h, PMA-differentiated THP-1 cells, 15 μM nigericin, HTRF.
Type: cell-based
Experimental: 10 μL supernatant was removed, and IL-1p levels were monitored using an HTRF assay (CisBio, #62IL1PEC) according to manufacturers' instructions. Viability and pyroptosis was monitored with the addition of PrestoBlue cell viability reagent (Life Technologies, #A13261) directly to the cell culture plate.
IC50 values were calculated from the plot of percentage of inhibition versus the inhibitor concentration by a logistics fit according to: y=A2+(A1−A2)/(1+(x/IC50)^p) where y is the %-inhibition at the inhibitor concentration, x. A1 is the lowest inhibition value, i.e. 0%, and A2 the maximum inhibition value, i.e. 100%. The exponent, p, is the Hill coefficient. The curve fitting was conducted with an internally developed software suite.
NLRP3-dependent IL-1β secretion was stimulated in PMA-differentiated THP-1 cells by the addition of nigericin, and cytokines were measured in the […] after 3 hours. As discussed above, activation of the NLRP3 inflammasome requires both an NF-kB-dependent priming step and the addition of a NLRP3 activator.

Row | Compound | IC50
14 | CC(C)c1nn(CC(=O)Nc2ccncn2)c(=O)c2cc3sc(Cl)cc3n12 [Ex 1, 2-(2-Chloro-5-isopropyl-8-oxothieno[2′,3′:4,5]pyrrolo[1,2-d][1,2,4]triazin-7(8H)-yl)-N-(pyrimidin-4-yl)acetamide] | 20.2 nM
15 | CC(O)c1nn(CC(=O)Nc2ccncn2)c(=O)c2cc3sc(Cl)cc3n12 (stereo not shown) [Ex 3, 2-(2-Chloro-5-(1-hydroxyethyl)-8-oxothieno[2′,3′:4,5]pyrrolo[1,2-d][1,2,4]triazin-7(8H)-yl)-N-(pyrimidin-4-yl)acetamide] | 228 nM
16 | O=C(Cn1nc(C2CC2)n2c(cc3scnc32)c1=O)Nc1cccnc1 [Ex 4, 2-(5-Cyclopropyl-8-oxothiazolo[5′,4′:4,5]pyrrolo[1,2-d][1,2,4]triazin-7(8H)-yl)-N-(pyridin-3-yl)acetamide] | 220 nM
17 | CC(C)c1nn(CC(=O)Nc2ccncn2)c(=O)c2cc3sc(F)cc3n12 [Ex 6, 2-(2-Fluoro-5-isopropyl-8-oxothieno[2′,3′:4,5]pyrrolo[1,2-d][1,2,4]triazin-7(8H)-yl)-N-(pyrimidin-4-yl)acetamide] | 6.5 nM
18 | CC(C)(O)c1nn(CC(=O)N[C@@H]2CCNC2)c(=O)c2cc3sc(Cl)cc3n12 [Ex 106, (R)-2-(2-Chloro-5-(2-hydroxypropan-2-yl)-8-oxothieno[2′,3′:4,5]pyrrolo[1,2-d][1,2,4]triazin-7(8H)-yl)-N-(pyrrolidin-3-yl)acetamide] | 2180 nM
19 | CC(C)(O)c1nn(CC(=O)N[C@H]2CCNC2)c(=O)c2cc3sc(Cl)cc3n12 [Ex 107, (S)-2-(2-Chloro-5-(2-hydroxypropan-2-yl)-8-oxothieno[2′,3′:4,5]pyrrolo[1,2-d][1,2,4]triazin-7(8H)-yl)-N-(pyrrolidin-3-yl)acetamide] | 4400 nM
20 | CC(C)c1nn(CC(=O)N[C@H]2C[C@H](O)C2)c(=O)c2cc3sc(Cl)cc3n12 [Ex 108, 2-(2-Chloro-5-isopropyl-8-oxothieno[2′,3′:4,5]pyrrolo[1,2-d][1,2,4]triazin-7(8H)-yl)-N-((1r,3r)-3-hydroxycyclobutyl)acetamide] | 101 nM
21 | CC(C)c1nn(CC(=O)N[C@H]2C[C@@H](O)C2)c(=O)c2cc3sc(Cl)cc3n12 [Ex 109, 2-(2-Chloro-5-isopropyl-8-oxothieno[2′,3′:4,5]pyrrolo[1,2-d][1,2,4]triazin-7(8H)-yl)-N-((1s,3s)-3-hydroxycyclobutyl)acetamide] | 221 nM
22 | CC(C)c1nn(CC(=O)NCCC2(O)CC2)c(=O)c2cc3sc(Cl)cc3n12 [Ex 110, 2-(2-Chloro-5-isopropyl-8-oxothieno[2′,3′:4,5]pyrrolo[1,2-d][1,2,4]triazin-7(8H)-yl)-N-(2-(1-hydroxycyclopropyl)ethyl)acetamide] | 115 nM
23 | CC(C)c1nn(CC(=O)Nc2cc(C(F)F)ncn2)c(=O)c2cc3sc(Cl)cc3n12 [Ex 112, 2-(2-Chloro-5-isopropyl-8-oxothieno[2′,3′:4,5]pyrrolo[1,2-d][1,2,4]triazin-7(8H)-yl)-N-(6-(difluoromethyl)pyrimidin-4-yl)acetamide] | 253 nM
24 | Cc1nc2c(cc3c(=O)n(CC(=O)N[C@H]4CC[C@H](C(=O)O)CC4)nc(C(C)C)n32)s1 [Ex 118, (1r,4r)-4-(2-(5-Isopropyl-2-methyl-8-oxothiazolo[5′,4′:4,5]pyrrolo[1,2-d][1,2,4]triazin-7(8H)-yl)acetamido)cyclohexane-1-carboxylic acid] | 78.8 nM
25 | CC(C)c1nn(CC(=O)N[C@H]2CC[C@H](C(=O)O)CC2)c(=O)c2cc3scnc3n12 [Ex 119, (1r,4r)-4-(2-(5-Isopropyl-8-oxothiazolo[5′,4′:4,5]pyrrolo[1,2-d][1,2,4]triazin-7(8H)-yl)acetamido)cyclohexane-1-carboxylic acid] | 40.5 nM
26 | CC(C)c1nn(CC(=O)N[C@H]2CC[C@H](C(=O)O)CC2)c(=O)c2cc3sc(F)cc3n12 [Ex 120, (1r,4r)-4-(2-(2-Fluoro-5-isopropyl-8-oxothieno[2′,3′:4,5]pyrrolo[1,2-d][1,2,4]triazin-7(8H)-yl)acetamido)cyclohexane-1-carboxylic acid] | 17.2 nM
27 | O=C(Cn1nc(C2CC2)n2c(cc3sc(Cl)cc32)c1=O)N[C@H]1CC[C@H](C(=O)O)CC1 [Ex 121, (1r,4r)-4-(2-(2-Chloro-5-cyclopropyl-8-oxothieno[2′,3′:4,5]pyrrolo[1,2-d][1,2,4]triazin-7(8H)-yl)acetamido)cyclohexane-1-carboxylic acid] | 44.1 nM
28 | CC(C)(O)c1nn(CC(=O)N[C@H]2CC[C@H](C(=O)O)CC2)c(=O)c2cc3sc(Cl)cc3n12 [Ex 122, (1r,4r)-4-(2-(2-Chloro-5-(2-hydroxypropan-2-yl)-8-oxothieno[2′,3′:4,5]pyrrolo[1,2-d][1,2,4]triazin-7(8H)-yl)acetamido)cyclohexane-1-carboxylic acid] | 267 nM
29 | CC(C)c1nn(CC(=O)NC23CC(C(=O)O)(C2)C3)c(=O)c2cc3sc(Cl)cc3n12 [Ex 123, 3-(2-(2-Chloro-5-isopropyl-8-oxothieno[2′,3′:4,5]pyrrolo[1,2-d][1,2,4]triazin-7(8H)-yl)acetamido)bicyclo[1.1.1]pentane-1-carboxylic acid] | 2080 nM
30 | CC(C)(O)c1nn(CC(=O)N[C@@H]2CCCN(C3CC3)C2)c(=O)c2cc3sc(Cl)cc3n12 [Ex 126, (R)-2-(2-Chloro-5-(2-hydroxypropan-2-yl)-8-oxothieno[2′,3′:4,5]pyrrolo[1,2-d][1,2,4]triazin-7(8H)-yl)-N-(1-cyclopropylpiperidin-3-yl)acetamide] | 0.6 nM
31 | CCN1CCC[C@@H](NC(=O)Cn2nc(C(C)(C)O)n3c(cc4sc(Cl)cc43)c2=O)C1 [Ex 132, (R)-2-(2-Chloro-5-(2-hydroxypropan-2-yl)-8-oxothieno[2′,3′:4,5]pyrrolo[1,2-d][1,2,4]triazin-7(8H)-yl)-N-(1-ethylpiperidin-3-yl)acetamide] | 0.8 nM
